In ChEMBL document CHEMBL1135959, “The discovery of SB-435495. A potent, orally active inhibitor of lipoprotein-associated phospholipase A(2) for evaluation in man” (Bioorg Med Chem Lett, 2002):
≈ marks a conversion by molar mass, not a printed value.

Key:
Cytochrome P450 3A4 = Cytochrome P450 3A4 (Homo sapiens, UniProt P08684); experiment: Inhibition of cytochrome P450 3A4; format: ADME
[1] = molecular target: T1, Platelet-activating factor acetylhydrolase (Homo sapiens, UniProt Q13093); experiment: Inhibitory concentration against Lipoprotein-Associated Phospholipase A2 (Lp-PLA2) was estimated
T1 sequence (Q13093 whole entry): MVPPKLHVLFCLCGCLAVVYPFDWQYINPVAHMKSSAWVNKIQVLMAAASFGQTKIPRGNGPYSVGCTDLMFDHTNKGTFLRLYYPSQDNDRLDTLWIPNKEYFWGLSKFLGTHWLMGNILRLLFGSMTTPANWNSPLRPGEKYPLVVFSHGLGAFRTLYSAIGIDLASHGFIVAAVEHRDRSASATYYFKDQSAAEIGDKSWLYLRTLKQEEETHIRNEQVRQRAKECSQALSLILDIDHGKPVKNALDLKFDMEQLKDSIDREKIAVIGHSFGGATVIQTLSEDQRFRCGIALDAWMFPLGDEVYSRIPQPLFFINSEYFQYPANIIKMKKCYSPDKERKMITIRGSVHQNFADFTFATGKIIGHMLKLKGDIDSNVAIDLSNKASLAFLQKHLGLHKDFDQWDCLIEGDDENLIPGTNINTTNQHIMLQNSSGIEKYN

[2] = Permeability of compound was evaluated in an artificial membrane permeability assay; format: ADME, cell membranes; conditions: PAMPA; read-out: Permeability (converted)
[3] = Acid dissociation constant was determined for the compound; format: ADME
[4] = Oral bioavailability in dog; format: ADME, organism-based, Canis lupus familiaris; conditions: in vivo, read-out: Bioavailabiility
[5] = Solubility in pure water at pH 4.7; format: physicochemical
Cytochrome P450 1A2 = molecular target: T2, Cytochrome P450 1A2 (Homo sapiens, UniProt P05177); experiment: Inhibition of cytochrome P450 1A2; format: ADME
T2 sequence (P05177 whole entry): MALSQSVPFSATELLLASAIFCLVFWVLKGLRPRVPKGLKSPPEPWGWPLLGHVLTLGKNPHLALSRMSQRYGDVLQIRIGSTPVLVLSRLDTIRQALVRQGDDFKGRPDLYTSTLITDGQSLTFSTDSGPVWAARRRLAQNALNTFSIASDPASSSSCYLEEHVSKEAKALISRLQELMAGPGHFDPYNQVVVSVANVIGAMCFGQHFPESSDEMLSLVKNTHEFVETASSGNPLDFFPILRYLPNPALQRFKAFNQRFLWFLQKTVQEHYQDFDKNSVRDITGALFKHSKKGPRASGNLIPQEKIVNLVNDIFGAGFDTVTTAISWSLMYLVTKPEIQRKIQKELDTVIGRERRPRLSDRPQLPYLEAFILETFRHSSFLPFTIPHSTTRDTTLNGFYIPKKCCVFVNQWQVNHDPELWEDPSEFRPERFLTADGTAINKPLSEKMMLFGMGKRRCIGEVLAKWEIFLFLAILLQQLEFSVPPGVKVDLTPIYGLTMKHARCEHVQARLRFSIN

Cytochrome P450 2C19 = Cytochrome P450 2C19 (Homo sapiens, UniProt P33261); experiment: Inhibition of cytochrome P450 2C19; format: ADME
Cytochrome P450 2C19, sequence (P33261 whole entry): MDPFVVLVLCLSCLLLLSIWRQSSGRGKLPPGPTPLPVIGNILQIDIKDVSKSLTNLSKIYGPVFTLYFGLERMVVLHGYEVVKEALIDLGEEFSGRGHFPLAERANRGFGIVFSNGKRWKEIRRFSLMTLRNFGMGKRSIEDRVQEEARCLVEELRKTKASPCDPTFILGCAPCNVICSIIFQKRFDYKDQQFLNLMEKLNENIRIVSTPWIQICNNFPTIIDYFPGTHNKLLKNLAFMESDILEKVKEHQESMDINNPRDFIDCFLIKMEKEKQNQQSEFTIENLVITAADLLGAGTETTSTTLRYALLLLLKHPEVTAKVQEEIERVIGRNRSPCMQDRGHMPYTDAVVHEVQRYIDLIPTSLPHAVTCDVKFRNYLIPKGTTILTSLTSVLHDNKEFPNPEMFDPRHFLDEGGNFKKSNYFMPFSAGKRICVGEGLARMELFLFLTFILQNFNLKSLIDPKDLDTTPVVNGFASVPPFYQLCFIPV

Cytochrome P450 2C9 = Cytochrome P450 2C9 (Homo sapiens, UniProt P11712); experiment: Inhibition of cytochrome P450 2C9; format: ADME
Cytochrome P450 2C9, sequence (P11712 whole entry): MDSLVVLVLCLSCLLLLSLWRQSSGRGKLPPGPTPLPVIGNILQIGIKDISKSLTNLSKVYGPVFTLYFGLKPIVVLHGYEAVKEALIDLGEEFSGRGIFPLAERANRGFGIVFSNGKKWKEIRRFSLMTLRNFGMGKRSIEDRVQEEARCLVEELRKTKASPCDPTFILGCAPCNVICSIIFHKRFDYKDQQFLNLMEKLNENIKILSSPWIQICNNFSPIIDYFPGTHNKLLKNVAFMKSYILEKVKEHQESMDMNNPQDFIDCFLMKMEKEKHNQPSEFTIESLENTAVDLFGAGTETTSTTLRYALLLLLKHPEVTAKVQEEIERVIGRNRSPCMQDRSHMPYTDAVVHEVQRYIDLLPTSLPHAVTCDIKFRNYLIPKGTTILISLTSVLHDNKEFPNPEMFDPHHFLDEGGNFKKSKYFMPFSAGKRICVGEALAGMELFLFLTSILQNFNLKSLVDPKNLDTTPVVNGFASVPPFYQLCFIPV

Cytochrome P450 2D6 = Cytochrome P450 2D6 (Homo sapiens, UniProt P10635); experiment: Inhibition of cytochrome P450 2D6; format: ADME
Cytochrome P450 2D6, sequence (P10635 whole entry): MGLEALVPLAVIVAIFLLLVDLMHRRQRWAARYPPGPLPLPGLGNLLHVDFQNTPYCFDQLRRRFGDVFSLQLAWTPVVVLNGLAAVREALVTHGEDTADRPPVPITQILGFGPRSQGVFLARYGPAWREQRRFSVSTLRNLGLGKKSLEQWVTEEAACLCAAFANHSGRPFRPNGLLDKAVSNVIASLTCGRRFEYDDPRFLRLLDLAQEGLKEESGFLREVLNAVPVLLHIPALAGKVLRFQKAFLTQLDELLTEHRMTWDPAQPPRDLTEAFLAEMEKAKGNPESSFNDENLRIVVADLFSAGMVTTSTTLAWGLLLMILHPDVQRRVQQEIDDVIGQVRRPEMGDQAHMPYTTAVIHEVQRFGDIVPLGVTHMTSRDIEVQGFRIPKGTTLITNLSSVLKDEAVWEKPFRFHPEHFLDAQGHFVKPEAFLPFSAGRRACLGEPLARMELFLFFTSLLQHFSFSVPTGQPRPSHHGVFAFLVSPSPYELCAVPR

Homo sapiens [6] = organism: Homo sapiens; experiment: Concentration required to inhibit the production of lyso-PtdCho by the compound during the copper catalyzed oxidation of human LDL; format: functional
[7] = Oral bioavailability in rat; format: ADME, organism-based; conditions: in vivo
Homo sapiens [8] = organism: Homo sapiens; experiment: Concentration required to inhibit the subsequent monocyte chemotaxis by the compound during the copper catalyzed oxidation of human LDL; format: functional

Cytochrome P450 3A4, sequence (P08684 whole entry): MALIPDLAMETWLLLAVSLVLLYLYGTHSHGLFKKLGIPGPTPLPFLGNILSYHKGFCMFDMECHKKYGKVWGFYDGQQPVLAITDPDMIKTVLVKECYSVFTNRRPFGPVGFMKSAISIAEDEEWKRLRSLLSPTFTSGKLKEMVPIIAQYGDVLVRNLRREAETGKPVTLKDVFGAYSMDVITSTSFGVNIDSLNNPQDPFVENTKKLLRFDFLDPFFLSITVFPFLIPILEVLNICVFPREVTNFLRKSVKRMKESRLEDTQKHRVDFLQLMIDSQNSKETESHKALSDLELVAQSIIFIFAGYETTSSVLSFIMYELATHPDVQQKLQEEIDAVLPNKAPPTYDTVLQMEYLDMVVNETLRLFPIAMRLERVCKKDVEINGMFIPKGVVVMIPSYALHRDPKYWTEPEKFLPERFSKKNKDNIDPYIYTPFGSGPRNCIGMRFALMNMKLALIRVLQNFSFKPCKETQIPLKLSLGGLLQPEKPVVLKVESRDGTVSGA

| SMILES | IC50 (Cytochrome P450 3A4) [µM] | IC50 [1] [µM] | Papp [2] [nm/s] | also measured |
| --- | --- | --- | --- | --- |
| COc1ncc(Cc2cn(CC(=O)N(CC(=O)N(C)C)Cc3ccc(-c4ccc(Cl)cc4)cc3)c(SCc3ccc(F)cc3)nc2=O)cn1 | < 0.5 | 0.0002 | – | – |
| CN(C)C(=O)CN(Cc1ccc(-c2ccc(Cl)cc2)cc1)C(=O)Cn1cc(Cc2cnn(C)c2)c(=O)nc1SCc1ccc(F)cc1 | > 0.5 | – | – | – |
| CN(C)CCN(Cc1ccc(-c2ccc(Cl)cc2)cc1)C(=O)Cn1cc(Cc2cnn(C)c2)c(=O)nc1SCc1ccc(F)cc1 | 8 | – | 5.56 | – |
| CCN(CC)CCCN(Cc1ccc(-c2ccc(Cl)cc2)cc1)C(=O)Cn1cc(Cc2cnn(C)c2)c(=O)nc1SCc1ccc(F)cc1 | 2 | – | < 2.78 | pKa [3]: 9 |
| CCN(CC)CCN(Cc1ccc(-c2ccc(C(F)(F)F)cc2)cc1)C(=O)Cn1cc(Cc2cnn(C)c2)c(=O)nc1SCc1ccc(F)cc1 | 10 | – | 47.2 | bioavailability [4]: 24%; solubility [5]: 5 mg/mL (≈ 6.94 mM); IC50 (Cytochrome P450 1A2): 100 µM; IC50 (Cytochrome P450 2C19): > 40 µM; IC50 (Cytochrome P450 2C9): 100 µM; IC50 (Cytochrome P450 2D6): 37 µM; IC50 (Homo sapiens [6]): 0.023 µM; bioavailability [7]: 13%; IC50 (Homo sapiens [8]): 0.01 µM |
| CN1CCN(CCCN(Cc2ccc(-c3ccc(Cl)cc3)cc2)C(=O)Cn2cc(Cc3cnn(C)c3)c(=O)nc2SCc2ccc(F)cc2)CC1 | 10 | – | < 2.78 | – |
| CN(C)CCCN(Cc1ccc(-c2ccc(Cl)cc2)cc1)C(=O)Cn1cc(Cc2cnn(C)c2)c(=O)nc1SCc1ccc(F)cc1 | 17 | – | 2.78 | – |
| COc1ncc(Cc2cn(CC(=O)N(CCN(C)C)Cc3ccc(-c4ccc(Cl)cc4)cc3)c(SCc3ccc(F)cc3)nc2=O)cn1 | – | 0.0002 | – | – |
| Cn1cc(Cc2cn(CC(=O)N(CCN)Cc3ccc(-c4ccc(Cl)cc4)cc3)c(SCc3ccc(F)cc3)nc2=O)cn1 | 15 | – | 5.56 | – |
| CN(C)CCN(Cc1ccc(-c2ccc(C(F)(F)F)cc2)cc1)C(=O)Cn1cc(Cc2cnn(C)c2)c(=O)nc1SCc1ccc(F)cc1 | 30 | – | < 2.78 | – |
| COc1ncc(Cc2cn(CC(=O)N(CCO)Cc3ccc(-c4ccc(Cl)cc4)cc3)c(SCc3ccc(F)cc3)nc2=O)cn1 | – | 0.0002 | – | – |
| Cn1cc(Cc2cn(CC(=O)N(CCO)Cc3ccc(-c4ccc(Cl)cc4)cc3)c(SCc3ccc(F)cc3)nc2=O)cn1 | 19 | – | 5.56 | – |
| Cn1cc(Cc2cn(CC(=O)N(CCN3CCCCC3)Cc3ccc(-c4ccc(C(F)(F)F)cc4)cc3)c(SCc3ccc(F)cc3)nc2=O)cn1 | 10 | 0.00017 | 189 | – |
| COc1ncc(Cc2cn(CC(=O)N(CC(=O)O)Cc3ccc(-c4ccc(Cl)cc4)cc3)c(SCc3ccc(F)cc3)nc2=O)cn1 | – | 0.001 | – | – |
| Cn1cc(Cc2cn(CC(=O)N(CCN3CCCC3)Cc3ccc(-c4ccc(Cl)cc4)cc3)c(SCc3ccc(F)cc3)nc2=O)cn1 | 6 | – | 11.1 | – |
| CCN(CC)CCN(Cc1ccc(-c2ccc(Cl)cc2)cc1)C(=O)Cn1cc(Cc2cnn(C)c2)c(=O)nc1SCc1ccc(F)cc1 | 5 | – | 80.6 | pKa [3]: 8.3 |
| Cn1cc(Cc2cn(CC(=O)N(CC(=O)O)Cc3ccc(-c4ccc(C(F)(F)F)cc4)cc3)c(SCc3ccc(F)cc3)nc2=O)cn1 | 31 | – | < 2.78 | – |
| Cn1cc(Cc2cn(CC(=O)N(CC(=O)N3CCOCC3)Cc3ccc(-c4ccc(C(F)(F)F)cc4)cc3)c(SCc3ccc(F)cc3)nc2=O)cn1 | – | 0.0001 | – | – |
